# Results from patent US20110212137A1, “INHALABLE PHARMACEUTICAL COMPOSITION” (TEVA BRANDED PHARMACEUTICAL PRODUCTS R&D, INC., priority 2010, published 2011).
# System: Asthma patients
# Assay: Retrospective observational cohort study (UK General Practice Research Database): odds of successful asthma control after ICS increase
# Format: in vivo
# Settings: compared with Qvar; as the primary proxy plus average daily prescribed salbutamol no more than 200 mcg and terbutaline 500 mcg; 12 month follow-up
# Excerpt: Qvar® and other inhaled corticosteroids (ICS) CFC-beclometasone (BDP) and fluticasone propionate (FP) were compared in a large representative, UK clinical database.
# Patients were eligible if they had data available for the twelve months prior to AND twelve months after the date of ICS increase. Multiple logistic regression, adjusted for baseline severity, provided odds of successful asthma control (no asthma hospital attendances, oral steroids, consultations or hospital admissions for lower respiratory tract infections requiring antibiotics) during 12 month follow-up. Poisson regression was used to compare asthma exacerbation rates (unscheduled hospital admissions/A&E attendances for asthma or use of oral steroids).
# Study Design: A retrospective, observational, cohort study design was used, consisting of two time periods: a baseline period for confounder definition (minimum of one year before index prescription date) and an outcome period of one year post-index prescription date. The study design is shown in schematic format in FIG. 1.
# Statistical Analysis: Descriptive statistics were used to compare baseline outcomes. Multiple logistic regression, adjusted for baseline severity and other potential confounders found at baseline, was used to determine the odds of successful asthma control. Poisson regression was used to compare exacerbation rates. […]
smiles,measurement,value
"CCC(=O)O[C@]1(C(=O)SCF)[C@H](C)C[C@H]2[C@@H]3C[C@H](F)C4=CC(=O)C=C[C@]4(C)[C@@]3(F)[C@@H](O)C[C@@]21C [FP, fluticasone propionate]","Adjusted odds ratio for successful asthma control, revised definition including SABA use",0.90
